This series is described as follows: Preliminary screening of ibuprofen solubility in HPMC. In kind it is physicochemical. The settings on record: 0.5 part ibuprofen in 1 part HPMC w/w. From the text: As listed in Table 4, […] process, which is a common procedure to generate glass-solution solid dispersion (Newman, ‘Pharmaceutical Amorphous Solid Dispersions’, Wiley (2015)). […] Therefore, these dispersions exceed the solubility limit of ibuprofen in HPMC.

For `CC(C)Cc1ccc(C(C)C(=O)O)cc1` (racemic) [ibuprofen], the “solubility of ibuprofen in HPMC” value is given as “about 50 wt % of HPMC”.

The record behind these values is patent US10792249B2, “High drug loading pharmaceutical compositions” (AcrysPharm LLC, priority 2017, dated 2020).
